The values below come from patent US20110269763A1, “CRTH2 receptor ligands for medicinal uses” (7TM Pharma A/S, priority 2004, published 2011).

Molecules are shown by their SMILES.

The target of experiment [1] is T1, human CRTH2 (Homo sapiens, UniProt Q9Y5Y4, V204A).
T1 sequence (Q9Y5Y4 1-395 V204A): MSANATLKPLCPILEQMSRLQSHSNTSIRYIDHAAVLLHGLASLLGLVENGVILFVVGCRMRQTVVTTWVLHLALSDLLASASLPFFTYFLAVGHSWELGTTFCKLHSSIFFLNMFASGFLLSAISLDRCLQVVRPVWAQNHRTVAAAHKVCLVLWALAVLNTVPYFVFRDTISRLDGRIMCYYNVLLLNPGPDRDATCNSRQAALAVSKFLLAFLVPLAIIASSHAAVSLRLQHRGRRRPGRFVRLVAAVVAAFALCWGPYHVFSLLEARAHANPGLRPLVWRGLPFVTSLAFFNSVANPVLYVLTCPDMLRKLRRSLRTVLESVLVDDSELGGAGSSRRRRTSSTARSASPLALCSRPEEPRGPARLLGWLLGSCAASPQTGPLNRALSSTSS
Description: Functional antagonist BRET assay on HEK293 cells stably expressing human CRTH2-Rluc and GFP2-β-arr2. The arrangement: expressed in transfected cells. Format: cell-based. Particulars: read-out: Antag. IC50. The method in brief: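 Cells (2×10^6/mL in D-PBS with glucose) were preincubated 15 min with antagonist at 1% DMSO, then agonist and DeepBlueC were co-injected. Emission at 400 and 515 nm was read 5 s later, and the mBRET ratio (515/400 nm) was used to derive IC50 from concentration–response curves.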
On the technique in general: BRET reads energy transfer from a luciferase to a nearby fluorophore.

Experiment [2] deals with T1, human CRTH2. Description: Receptor binding assay: [3H]PGD2 competition binding on whole COS-7 cells transiently transfected with CRTH2 (also stable HEK293 cells). Also on record: expressed in transfected cells; host or cells: COS-7 (transient, calcium phosphate). Put shortly: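 Whole COS-7 cells transiently transfected with human CRTH2 (calcium phosphate), or stable HEK293 cells, competed against 0.1 nM [3H]PGD2 in HBSS/10 mM HEPES with 1% DMSO, 3 h at 4 °C. Nonspecific binding with 10 μM PGD2; scintillation counting, duplicates. IC50 from curve fitting.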

[3] abbreviates: BRET, antagonist incubated 15 minutes prior to agonist.
Where [4] appears, read: competition with 0.1 nM [3H]PGD2, whole cells, 3 h at 4° C.
The mark [5] stands for this setting: functional antagonist assay, Table 3.
The mark [6] stands for this setting: receptor binding assay, Table 3.

Turning to `O=C(O)COc1ccc(Br)cc1-c1nc(-c2ccccn2)no1` [D133, [4-Bromo-2-(3-pyridin-[1,2,4]oxadiazol-5-yl)phenoxy]acetic acid], the IC50 (commonly the concentration that gives 50% inhibition) at human CRTH2 [1] (setting [3]) is above 5000 nM; at human CRTH2 [2] (setting [4]), below 500 nM.

As to `O=C(O)COc1ccc(Br)cc1-c1noc(-c2cccc(Cl)c2)n1` [D136, {4-Bromo-2-[5-(3-chlorophenyl)-[1,2,4]oxadiazol-3-yl]phenoxy}acetic acid], the IC50 at human CRTH2 [1] (setting [3]) and at human CRTH2 [2] (setting [4]) was below 500 nM throughout.

With `Nc1ccc(OCC(=O)O)c(C(=O)c2cnn(-c3ccccc3)c2)c1` [D66, [4-Amino-2-(1-phenyl-1H-pyrazole-4-carbonyl)phenoxy]acetic acid], the IC50 was below 500 nM on human CRTH2 [1] (setting [3]) and 500 to 5000 nM at human CRTH2 [2] (setting [4]).

For `O=C(O)COc1ccc(Br)cc1C=NNc1nncc(-c2ccccc2)n1` [D152], the IC50 on human CRTH2 [1] (setting [3]) is 500 to 5000 nM; on human CRTH2 [2] (setting [4]), below 500 nM.

Take `O=C(O)COc1ccc(Br)cc1-c1nc(C2(c3ccccc3)CC2)no1` [D132, {4-Bromo-2-[3-(1-phenylcyclopropyl)-[1,2,4]oxadiazol-5-yl]phenoxy}acetic acid]: the IC50 on human CRTH2 [1] (setting [3]) and at human CRTH2 [2] (setting [4]) was below 500 nM throughout.

Regarding `O=C(O)COc1ccc([N+](=O)[O-])cc1C(=O)c1cnn(-c2ccccc2Cl)c1` [D27, 4-Nitro-2-[1-(2-chlorophenyl)-1H-pyrazole-4-carbonyl]phenoxyacetic acid], the IC50 on human CRTH2 [1] (setting [3]) and on human CRTH2 [2] (setting [4]) was below 500 nM in each case.

For `COc1cccc(-c2nc(-c3cc(Br)ccc3OCC(=O)O)co2)c1` [D86, {4-Bromo-2-[2-(3-methoxyphenyl)oxazol-4-yl]phenoxy}acetic acid], the half-inhibitory concentration (IC50) on human CRTH2 [1] (setting [3]) and at human CRTH2 [2] (setting [4]) was below 500 nM each time.

As to `O=C(O)COc1ccc(Br)cc1C(=O)c1cnn(-c2cccc(Br)c2)c1` [D24, 4-Bromo-2-[1-(3-bromophenyl)-1H-pyrazole-4-carbonyl]phenoxyacetic acid], the IC50 on human CRTH2 [1] (setting [3]) and at human CRTH2 [2] (setting [4]) was below 500 nM in each case.

As to `COc1ccc(-c2noc(-c3cc(Br)ccc3OCC(=O)O)n2)cc1` [D101, {4-Bromo-2-[3-(4-methoxy-phenyl)-[1,2,4]oxadiazol-5-yl]phenoxy}acetic acid], the IC50 on human CRTH2 [1] (setting [5]) and on human CRTH2 [2] (setting [6]) was below 500 nM in each case.

With `COc1cc(Cc2noc(-c3cc(Br)ccc3OCC(=O)O)n2)cc(OC)c1` [D128, {4-Bromo-2-[3-(3,5-dimethoxybenzyl)-[1,2,4]oxadiazol-5-yl]phenoxy}acetic acid], the IC50 is 500 to 5000 nM on human CRTH2 [1] (setting [5]) and below 500 nM at human CRTH2 [2] (setting [6]).

For the compound `O=C(O)COc1ccc(Br)cc1-c1nc(-c2ccc(Cl)cc2)no1` [D102, {4-Bromo-2-[3-(4-chlorophenyl)-[1,2,4]oxadiazol-5-yl]phenoxy}acetic acid], the IC50 at human CRTH2 [1] (setting [5]) and at human CRTH2 [2] (setting [6]) was below 500 nM throughout.

For the compound `O=C(O)COc1ccc(-c2cc(F)cc(F)c2)cc1C(=O)c1cnn(-c2ccccc2)c1` [D8, [3′,5′-Difluoro-3-(1-phenyl-1H-pyrazole-4-carbonyl)biphenyl-4-yloxy]acetic acid], the concentration for half-maximal inhibition (IC50) was 500 to 5000 nM on human CRTH2 [1] (setting [3]) and below 500 nM on human CRTH2 [2] (setting [4]).

With `O=C(O)COc1ccc(Br)cc1C(=O)c1cnn(-c2cc(Cl)ccc2Cl)c1` [D59, {4-Bromo-2-[1-(2,5-dichlorophenyl)-1H-pyrazole-4-carbonyl]phenoxy}acetic acid], the IC50 at human CRTH2 [1] (setting [3]) and at human CRTH2 [2] (setting [4]) was below 500 nM in each case.

Regarding `CC(Oc1ccc(Br)cc1C(=O)c1cnn(-c2ccccc2Oc2ccccc2)c1)C(=O)O` (stereo not drawn) [D47, 2-{4-Bromo-2-[1-(2-phenoxyphenyl)-1H-pyrazole-4-carbonyl]phenoxy}propionic acid], the IC50 at human CRTH2 [1] (setting [3]) and on human CRTH2 [2] (setting [4]) was below 500 nM throughout.

On to `O=C(O)COc1ccc(Br)cc1-c1noc(-c2ccc(Cl)cc2)n1` [D135, {4-Bromo-2-[5-(4-chlorophenyl)-[1,2,4]oxadiazol-3-yl]phenoxy}acetic acid], for which the IC50 on human CRTH2 [1] (setting [3]) and at human CRTH2 [2] (setting [4]) was below 500 nM each time.

For the compound `O=C(O)COc1ccc(Br)cc1C(=O)c1cnn(-c2cccc3ccccc23)c1` [D82, [4-Bromo-2-(1-naphthalen-1-yl-1H-pyrazole-4-carbonyl)phenoxy]acetic acid], the IC50 on human CRTH2 [1] (setting [3]) and at human CRTH2 [2] (setting [4]) was below 500 nM throughout.

In the case of `O=C(O)COc1ccc(Cl)cc1C(=O)c1cnn(-c2ccccc2)c1` [D10, [4-Chloro-2-(1-phenyl-1H-pyrazole-4-carbonyl)phenoxy]acetic acid], the IC50 at human CRTH2 [1] (setting [3]) was 500 to 5000 nM; on human CRTH2 [2] (setting [4]) it was below 500 nM.

As for `CCc1cccc(CC)c1-n1cc(C(=O)c2cc(Br)ccc2OC(C)C(=O)O)cn1` (stereo not drawn) [D78, 2-{4-Bromo-2-[1-(2,6-diethylphenyl)-1H-pyrazole-4-carbonyl]phenoxy}propionic acid], the concentration for half-maximal inhibition (IC50) at human CRTH2 [1] (setting [3]) and on human CRTH2 [2] (setting [4]) was below 500 nM throughout.

On to `O=C(O)COc1ccc(Br)cc1C(=O)c1cc(-c2ccccc2)no1` [D97, [4-Bromo-2-(3-phenylisoxazole-5-carbonyl)phenoxy]acetic acid], for which the IC50 at human CRTH2 [1] (setting [3]) and at human CRTH2 [2] (setting [4]) was below 500 nM each time.

For `O=C(O)COc1ccc(Br)cc1C(=O)c1cnn(-c2ccccc2Cl)c1` [D14, 4-Bromo-2-[1-(2-chloro-phenyl)-1H-pyrazole-4-carbonyl]phenoxyacetic acid], the IC50 is below 500 nM at human CRTH2 [1] (setting [3]) and above 5000 nM at human CRTH2 [2] (setting [4]).

Turning to `O=C(O)COc1ccc(Br)cc1-c1nc(-c2cccc(C(F)(F)F)c2)no1` [D112, {4-Bromo-2-[3-(3-trifluoromethylphenyl)-[1,2,4]oxadiazol-5-yl]phenoxy}-acetic acid], the IC50 on human CRTH2 [1] (setting [5]) and on human CRTH2 [2] (setting [6]) was below 500 nM each time.

For `CC(Oc1ccc(Br)cc1C(=O)c1cnn(-c2ccccc2C(C)C)c1)C(=O)O` (stereo not drawn) [D79, 2-{4-Bromo-2-[1-(2-isopropylphenyl)-1H-pyrazole-4-carbonyl]phenoxy}propionic acid], the IC50 on human CRTH2 [1] (setting [3]) and at human CRTH2 [2] (setting [4]) was below 500 nM in each case.

Take `O=C(O)COc1ccccc1C=NNC(=O)c1ccc2ccccc2c1O` [D154]: the IC50 on human CRTH2 [1] (setting [3]) and on human CRTH2 [2] (setting [4]) was below 500 nM throughout.

For `O=C(O)COc1ccc(Br)cc1C(=O)c1cnn(-c2ccc(Cl)c(Cl)c2)c1` [D61, {4-Bromo-2-[1-(3,4-dichlorophenyl)-1H-pyrazole-4-carbonyl]phenoxy}acetic acid], the IC50 at human CRTH2 [1] (setting [3]) and at human CRTH2 [2] (setting [4]) was below 500 nM in each case.

`O=C(O)COc1ccc(Br)cc1-c1nc(-c2ccc(OC(F)(F)F)cc2)no1` [D103, {4-Bromo-2-[3-(4-trifluoromethoxyphenyl)-[1,2,4]oxadiazol-5-yl]phenoxy}acetic acid]: the IC50 on human CRTH2 [1] (setting [5]) and at human CRTH2 [2] (setting [6]) was below 500 nM throughout.

`CC1(Cc2cc(Br)ccc2OCC(=O)O)SC(=O)N(Cc2ccc(Cl)cc2)C1=O` (stereo not drawn) [D146, 4-Bromo-2-[3-(4-chlorobenzyl)-5-methyl-2,4-dioxothiazolidin-5-ylmethyl]phenoxyacetic acid]: the IC50 at human CRTH2 [1] (setting [3]) and on human CRTH2 [2] (setting [4]) was below 500 nM in each case.

Take `O=C(O)COc1ccc(Br)cc1-c1nc(-c2ccccc2)no1` [D99, [4-Bromo-2-(3-phenyl-[1,2,4]oxadiazol-5-yl)phenoxy]acetic acid]: the IC50 on human CRTH2 [1] (setting [5]) and on human CRTH2 [2] (setting [6]) was below 500 nM each time.

In the case of `O=C(O)COc1ccc(Br)cc1-c1nc(Cc2cccc(Cl)c2)no1` [D130, {4-Bromo-2-[3-(3-chlorobenzyl)-[1,2,4]oxadiazol-5-yl]phenoxy}acetic acid], the IC50 on human CRTH2 [1] (setting [5]) and at human CRTH2 [2] (setting [6]) was below 500 nM throughout.

Take `O=C(O)COc1ccc(Br)cc1C(=O)c1cnn(-c2ccc(C(F)(F)F)cc2)c1` [D81, {4-Bromo-2-[1-(4-trifluoromethylphenyl)-1H-pyrazole-4-carbonyl]phenoxy}acetic acid]: the IC50 at human CRTH2 [1] (setting [3]) and at human CRTH2 [2] (setting [4]) was below 500 nM each time.

Regarding `CC(Oc1ccc(Br)cc1C(=O)c1cnn(-c2ccccc2Cl)c1)C(=O)O` (stereo not drawn) [D38, 2-{4-Bromo-2-[1-(2-chlorophenyl)-1-H-pyrazole-4-carbonyl]phenoxy}propionic acid], the IC50 at human CRTH2 [1] (setting [3]) and at human CRTH2 [2] (setting [4]) was below 500 nM throughout.

For `Cc1ccc(OCC(=O)O)c(C(=O)c2cnn(-c3ccccc3)c2)c1` [D11, [4-Methyl-2-(1-phenyl-1H-pyrazole-4-carbonyl)phenoxy]acetic acid], the IC50 on human CRTH2 [1] (setting [3]) is 500 to 5000 nM; on human CRTH2 [2] (setting [4]), below 500 nM.

For `CC(=O)Nc1ccc(Cc2noc(-c3cc(Br)ccc3OCC(=O)O)n2)cc1` [D131, {2-[3-(4-Acetylaminobenzyl)-[1,2,4]oxadiazol-5-yl]-4-bromophenoxy}acetic acid], the IC50 on human CRTH2 [1] (setting [5]) and at human CRTH2 [2] (setting [6]) was below 500 nM throughout.

As to `O=C(O)COc1ccc(Br)cc1-c1nc(-c2ccc(Cl)cc2Cl)no1` [D129, {4-Bromo-2-[3-(2,4-dichlorophenyl)-[1,2,4]oxadiazol-5-yl]phenoxy}acetic acid], the IC50 on human CRTH2 [1] (setting [5]) and at human CRTH2 [2] (setting [6]) was below 500 nM throughout.
